{"source": "patent US20130225611A1", "about": "“Compositions and Methods for Reducing Cancer Cell Proliferation and Modulating Importin-Beta Function” (THE REGENTS OF THE UNIVERSITY OF CALIFORNIA, priority 2011, published 2013)", "key": {"[1]": {"molecular_target": "T1, importin-β (Homo sapiens, UniProt Q14974)", "T1 construct": "made in house; host or cells: BL21 cells (E. coli)", "T1 sequence (Q14974 whole entry)": "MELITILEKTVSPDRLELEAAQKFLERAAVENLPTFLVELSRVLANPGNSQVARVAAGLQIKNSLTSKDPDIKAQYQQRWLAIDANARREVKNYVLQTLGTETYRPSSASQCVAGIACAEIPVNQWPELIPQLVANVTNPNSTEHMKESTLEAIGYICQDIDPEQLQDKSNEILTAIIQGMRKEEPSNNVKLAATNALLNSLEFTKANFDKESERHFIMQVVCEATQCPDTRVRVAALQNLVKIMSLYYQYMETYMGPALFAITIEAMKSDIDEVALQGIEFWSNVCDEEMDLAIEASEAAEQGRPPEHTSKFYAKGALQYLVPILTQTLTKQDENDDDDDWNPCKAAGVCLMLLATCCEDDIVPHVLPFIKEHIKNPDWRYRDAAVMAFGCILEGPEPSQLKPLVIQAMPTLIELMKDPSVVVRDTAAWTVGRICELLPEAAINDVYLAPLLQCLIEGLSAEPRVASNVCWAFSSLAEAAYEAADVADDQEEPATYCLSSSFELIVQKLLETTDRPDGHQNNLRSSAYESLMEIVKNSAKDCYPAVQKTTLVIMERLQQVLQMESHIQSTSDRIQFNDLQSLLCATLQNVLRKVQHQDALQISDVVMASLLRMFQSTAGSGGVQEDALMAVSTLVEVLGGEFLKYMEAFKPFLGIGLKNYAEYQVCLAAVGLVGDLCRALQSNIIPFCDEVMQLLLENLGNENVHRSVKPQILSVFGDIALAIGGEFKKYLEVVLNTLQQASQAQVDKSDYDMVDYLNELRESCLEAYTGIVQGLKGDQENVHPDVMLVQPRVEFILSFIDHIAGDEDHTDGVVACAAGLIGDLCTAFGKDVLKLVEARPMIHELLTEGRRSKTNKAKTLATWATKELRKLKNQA", "assay": "fluorescent thermal shift assay (Sypro Orange), importin-β", "type": "binding", "details": "2 μM importin-β, 50 μM compound", "method": "(§1) Experiments were performed using Applied Biosystems StepOnePlus™ Real-Time polymerase chain reaction (RT-PCR) System. Protein stocks were diluted in PBS and added 70% v/v to a Microamp® Fast 96-well Reaction Plate and maintained on ice. Compounds (importazole and control compound 3016) were then added at 30% v/v in 3% DMSO. Freshly prepared 100× water based-dilution of Sypro® Orange Protein Gel Stain was then added at 1% v/v to reach a final reaction volume of 20 μl. Samples were mixed by gentle pipetting. After sealing the plates with Microamp™ Optical Adhesive Film, the plate was subjected to a heating cycle composed of a 10 sec prewarming step at 25° C. and a gradient between 25° C. and 95° C. with a 0.3° C. ramp. Data was analyzed using the StepOnePlus™ Software v2.1."}, "[2]": {"tested_on": "spindle assembly around sperm chromosomes", "assay": "spindle assembly in metaphase-arrested Xenopus egg extracts", "design": "species or system Xenopus laevis", "details": "100 μM importazole", "source_text": "In order to determine whether importazole also disrupts mitosis, importazole was first tested in metaphase-arrested Xenopus egg extracts, which rely heavily on a RanGTP gradient for spindle assembly around sperm chromosomes. […] The effect was similar to that of adding a truncated importin-β (amino acids 71-876), a version that no longer binds to RanGTP and therefore sequesters its cargoes. […] Thus, importazole caused dramatic effects on spindle assembly consistent with the known role of the importin-β/RanGTP pathway in the Xenopus egg extract system, and is not a general microtubule inhibitor.\n(§2) Xenopus laevis egg extracts were prepared as described by Hannak et al. (2006) Nat. Protoc. 1:2305-2314. For in vitro spindle assembly, Xenopus laevis sperm DNA was added to egg extracts supplemented with rhodamine-labeled tubulin. Asters were formed by addition of 5% DMSO. DNA was stained with Hoechst dye. The formation of microtubule-based structures was assessed using epifluorescence microscopy after a 30-minute room temperature incubation. In vitro microtubule polymerization and pelleting assays were performed by incubating 25 μM bovine tubulin, 1 mM GTP, and 5% DMSO in BRB80 buffer (80 mM PIPES, 1 mM MgCl2, 1 mM EGTA, pH 6.8) at 37° C. for 30 minutes. Polymerized microtubules were pelleted through a sucrose cushion, resuspended, and analyzed by SDS PAGE."}, "[3]": {"tested_on": "bovine tubulin", "assay": "pure tubulin polymerization and pelleting assay", "type": "biochemical", "details": "25 μM bovine tubulin, 5% DMSO, pelleting, SDS PAGE", "method": "as §2"}, "[4]": {"molecular_target": "T2, transportin (Homo sapiens, UniProt Q92973)", "T2 construct": "made in house; host or cells: SG13 cells (E. coli)", "T2 sequence (Q92973 1-898)": "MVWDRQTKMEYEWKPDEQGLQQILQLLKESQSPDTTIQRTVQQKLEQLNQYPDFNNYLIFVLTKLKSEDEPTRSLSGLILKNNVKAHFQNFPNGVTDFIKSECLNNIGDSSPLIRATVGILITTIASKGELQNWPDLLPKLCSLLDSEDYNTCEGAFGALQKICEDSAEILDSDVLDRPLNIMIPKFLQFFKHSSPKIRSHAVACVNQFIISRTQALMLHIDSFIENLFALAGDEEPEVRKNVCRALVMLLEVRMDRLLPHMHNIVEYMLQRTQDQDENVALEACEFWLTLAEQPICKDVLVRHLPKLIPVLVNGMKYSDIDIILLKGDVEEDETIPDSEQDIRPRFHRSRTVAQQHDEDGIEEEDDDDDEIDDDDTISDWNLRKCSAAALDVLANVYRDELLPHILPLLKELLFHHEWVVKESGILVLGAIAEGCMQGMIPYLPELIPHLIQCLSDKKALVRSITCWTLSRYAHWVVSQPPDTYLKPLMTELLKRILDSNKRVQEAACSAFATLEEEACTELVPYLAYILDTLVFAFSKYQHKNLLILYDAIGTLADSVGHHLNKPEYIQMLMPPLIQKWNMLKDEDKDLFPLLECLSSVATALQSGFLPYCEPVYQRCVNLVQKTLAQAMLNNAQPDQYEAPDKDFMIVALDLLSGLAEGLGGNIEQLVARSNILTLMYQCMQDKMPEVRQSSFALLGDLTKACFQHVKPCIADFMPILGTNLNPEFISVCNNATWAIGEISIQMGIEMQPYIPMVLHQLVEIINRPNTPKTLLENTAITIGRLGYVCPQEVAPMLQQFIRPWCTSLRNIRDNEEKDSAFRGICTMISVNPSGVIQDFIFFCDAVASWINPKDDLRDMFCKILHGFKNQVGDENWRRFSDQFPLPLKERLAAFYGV", "assay": "fluorescent thermal shift assay (Sypro Orange), transportin", "type": "binding", "details": "2 μM protein, 50 μM importazole", "method": "as §1"}, "[5]": {"tested_on": "mitotic importin-β cargo release", "assay": "Rango-3 FRET sensor FLIM in mitotic HeLa cells", "type": "cell-based, human", "details": "DMSO controls 0.12+/−0.4 ns", "source_text": "A key feature of importazole, a cell-permeable importin-β/RanGTP inhibitor, is its ability to dissect novel roles of this pathway in dividing human cells, which also provide a system to analyze mitotic gradients of released cargos using FRET probes. If importazole disrupts the interaction of importin-β with RanGTP, then the chromatin-localized FRET gradient of the cargo probe Rango should be reduced, since it undergoes FRET when released from importin-β in HeLa cells. […] Thus, importazole impairs mitotic importin-β cargo release in HeLa cells.\nThe Rango-3 FRET sensor is an improved version of Rango and was created by replacing Cerulean-EYFP donor-acceptor pair in Rango with EGFP as a donor and non-fluorescent acceptor sREACh which was modified by the introduction of mild dimerization mutations. […] The emission was collected from a custom side port, filtered through a 525 nm bandpass filter (ET525/50 Chroma) and detected by a HPM-100-40 module (Becker & Hickl) containing a hybrid Hamamatsu R10467-40 GaAsP photomultiplier. Two to three days before the experiment, HeLa cells were transfected with a pSG8 plasmid containing the Rango-3 open reading frame (pK135) to induce sensor expression. […] Fluorescence lifetime images were produced and analyzed using SPCI software (Becker & Hickl)."}, "[6]": {"tested_on": "CRM1-mediated export of NFAT-GFP", "assay": "NFAT-GFP nuclear export after ionomycin washout in HEK 293 cells", "type": "cell-based, human", "details": "HEK 293, importazole 40 μM, leptomycin B 10 ng/ml, 1 hour after ionomycin washout", "quoted_text": "For all import and export experiments, HEK 293 cells stably expressing NFAT-GFP were grown on glass coverslips to approximately 50% confluency prior to drug treatment. In all cases, importazole was used at 40 μM and leptomycin B was used at 10 ng/ml. For controls, DMSO was used at a concentration of 0.4%. Ionomycin was added at 1.25 μM. Importazole and leptomycin B treatments were all for 1 hour. In all experiments cells were fixed with 4% formaldehyde prior to fluorescence microscopy. DNA was visualized with 1 μg/ml Hoechst dye."}}, "data": [{"molecule": "CC(Nc1nc(N2CCCC2)nc2ccccc12)c1ccccc1", "note": "(stereo not drawn) [importazole, (1-phenyl-ethyl)-(2-pyrrolidin-1-yl-quinazolin-4-yl)-amine]", "values": [{"measurement": "reduction of melting temperature of importin-β", "setting": "[1]", "value": "1.72+/−0.27 °C"}, {"measurement": "sperm nuclei at which normal bipolar microtubule structures were prevented from forming", "setting": "[2]", "value": 80, "unit": "%"}, {"measurement": "polymerization of pure microtubules", "setting": "[3]", "value": "does not Affect Pure Microtubules"}, {"measurement": "effect on melting curve of transportin", "setting": "[4]", "value": "did not significantly affect the melting curves"}, {"measurement": "difference in fluorescence lifetime of Rango-3 donor GFP between chromosomes and distal cytoplasm", "setting": "[5]", "value": "0.07+/−0.03 ns"}, {"measurement": "CRM1-mediated export of NFAT-GFP", "setting": "[6]", "value": "occurred efficiently"}]}]}
